Consider 29 molecules from patent US20260217687A1 (NeoPhore Limited, priority 2023, published 2026).

For orientation: IC50 means the midpoint of a concentration-inhibition curve.

The assay addresses T1, recombinant N-terminal MLH1 (residues 15-340) (Homo sapiens, UniProt P40692).
T1 construct: recombinant N-terminal MLH1 (residues 15-340)
T1 sequence (P40692 15-340): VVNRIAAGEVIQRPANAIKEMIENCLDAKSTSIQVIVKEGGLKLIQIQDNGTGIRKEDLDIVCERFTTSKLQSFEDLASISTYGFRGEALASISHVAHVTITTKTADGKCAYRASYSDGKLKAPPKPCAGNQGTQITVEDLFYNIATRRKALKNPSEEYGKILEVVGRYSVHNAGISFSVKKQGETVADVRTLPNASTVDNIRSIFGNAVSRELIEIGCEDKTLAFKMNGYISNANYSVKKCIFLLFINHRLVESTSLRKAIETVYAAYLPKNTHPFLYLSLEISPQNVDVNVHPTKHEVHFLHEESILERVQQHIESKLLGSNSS
Put plainly: Fluorescence Polarisation Assay for MLH1. Particulars: 100 nM N-terminal MLH1, 5 nM probe compound. It counts as binding. In outline:
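Fluorescence polarisation displacement: 100 nM MLH1 (15-340) preincubated 30 min at room temperature with compound, then 5 nM rhodamine-labelled probe added and read immediately. Buffer 25 mM HEPES pH 7.5, 250 mM NaCl, 10 mM MgCl2, 0.01% Triton X-100, 5 mM DTT; normalised to no-inhibitor and no-enzyme controls.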
For orientation: Polarisation of emitted light reports the rotation of a fluorescent probe.

For the molecule `COc1ccc2c(c1)CN(C(=O)c1c(O)cc(C#N)cc1OCc1ccccc1)C2` [Example 13, 3-(Benzyloxy)-5-hydroxy-4-(5-methoxyisoindoline-2-carbonyl)benzonitrile], the IC50 fell in the range of 1 to 10 µM.
The result for `CN(C)CCOc1cc2c(c(N[C@@H]3CCOC3)c1)CN(C(=O)c1c(O)cc(C#N)cc1OCc1ccccc1)CC2` [Example 14, (R)-3-(Benzyloxy)-4-(6-(2-(dimethylamino)ethoxy)-8-((tetrahydrofuran-3-yl)amino)-1,2,3,4-tetrahydroisoquinoline-2-carbonyl)-5-hydroxybenzonitrile] reads 0.1 to 1 µM.
For the molecule `CN(C)CCOc1cc2c(c(N[C@H]3CCOC3)c1)CN(C(=O)c1c(O)cc(C#N)cc1OCc1ccccc1)CC2` [Example 15, (S)-3-(Benzyloxy)-4-(6-(2-(dimethylamino)ethoxy)-8-((tetrahydrofuran-3-yl)amino)-1,2,3,4-tetrahydroisoquinoline-2-carbonyl)-5-hydroxybenzonitrile], the IC50 was less than 0.1 µM.
The figure for `CC(=O)N1CC(Nc2cccc3c2CN(C(=O)c2c(O)cc(C#N)cc2OCc2ccccc2)C3)C1` [Example 16, 4-(4-((1-Acetylazetidin-3-yl)amino)isoindoline-2-carbonyl)-3-(benzyloxy)-5-hydroxybenzonitrile] is 0.1 to 1 µM.
Turning to `N#Cc1cc(O)c(C(=O)N2CCc3cccc(N[C@H]4CCOC4)c3C2)c(OCc2ccccc2)c1` [Example 17, (S)-3-(Benzyloxy)-5-hydroxy-4-(8-((tetrahydrofuran-3-yl)amino)-1,2,3,4-tetrahydroisoquinoline-2-carbonyl)benzonitrile], the IC50 lay in the range of 0.1 to 1 µM.
Turning to `CN(C)CCOc1cc2c(c(N[C@@H]3CCOC3)c1)CN(C(=O)c1c(O)cc(C#N)cc1OCc1ccccc1)C2` [Example 18, (R)-3-(Benzyloxy)-4-(6-(2-(dimethylamino)ethoxy)-4-((tetrahydrofuran-3-yl)amino)isoindoline-2-carbonyl)-5-hydroxybenzonitrile], the IC50 lay in the range of 0.1 to 1 µM.
The result for `CN(C)CCOc1cc2c(c(N[C@H]3CCOC3)c1)CN(C(=O)c1c(O)cc(C#N)cc1OCc1ccccc1)C2` [Example 19, (S)-3-(Benzyloxy)-4-(6-(2-(dimethylamino)ethoxy)-4-((tetrahydrofuran-3-yl)amino)isoindoline-2-carbonyl)-5-hydroxybenzonitrile] reads 0.1 to 1 µM; that for `CN(C)CCOc1cc2c(c(N[C@@H]3CCOC3)c1)CN(C(=O)c1c(O)cc(Cl)cc1OCc1ccccc1)CC2` [Example 21, (R)-(2-(Benzyloxy)-4-chloro-6-hydroxyphenyl)(6-(2-(dimethylamino)ethoxy)-8-((tetrahydrofuran-3-yl)amino)-3,4-dihydroisoquinolin-2(1H)-yl)methanone], less than 0.1 µM; that for `CN(C)CCOc1cc2c(c(N[C@H]3CCOC3)c1)CN(C(=O)c1c(O)cc(Cl)cc1OCc1ccccc1)CC2` [Example 22, (S)-(2-(Benzyloxy)-4-chloro-6-hydroxyphenyl)(6-(2-(dimethylamino)ethoxy)-8-((tetrahydrofuran-3-yl)amino)-3,4-dihydroisoquinolin-2(1H)-yl)methanone], less than 0.1 µM.
For the molecule `O=C(c1c(O)cc(C(F)(F)F)cc1OCc1ccccc1)N1Cc2cccc(N[C@H]3CCOC3)c2C1` [Example 23, (S)-(2-(Benzyloxy)-6-hydroxy-4-(trifluoromethyl)phenyl) (4-((tetrahydrofuran-3-yl)amino)isoindolin-2-yl) methanone], the concentration for half-maximal inhibition (IC50) fell in the range of 0.1 to 1 µM.
Take `CN(C)Cc1cc2c(cn1)CN(C(=O)c1c(O)cc(C#N)cc1OCc1ccccc1)C2` [Example 27, 3-(Benzyloxy)-4-(6-((dimethylamino)methyl)-2,3-dihydro-1H-pyrrolo[3,4-c]pyridine-2-carbonyl)-5-hydroxybenzonitrile]: the IC50 fell in the range of 1 to 10 µM.
In the case of `CN1CCN(c2cc3c(cn2)CN(C(=O)c2c(O)cc(C#N)cc2OCc2ccccc2)C3)CC1` [Example 27.1, 3-(Benzyloxy)-5-hydroxy-4-(6-(4-methylpiperazin-1-yl)-2,3-dihydro-1H-pyrrolo[3,4-c]pyridine-2-carbonyl)benzonitrile], the IC50 lay within 1 to 10 µM.
Consider `O=C(c1c(O)cc(C(F)F)cc1OCc1ccccc1)N1CCc2ccc(NC3CCOC3)cc21` (centres unmarked) [Example 27.2, (2-(Benzyloxy)-4-(difluoromethyl)-6-hydroxyphenyl)(6-((tetrahydrofuran-3-yl)amino)indolin-1-yl)methanone], for which the IC50 fell in the range of 0.1 to 1 µM.
As to `N#Cc1cc(O)c(C(=O)N2CCc3ccc(NC4CCOC4)cc32)c(OCc2ccccc2)c1` (centres unmarked) [Example 27.3, 3-(Benzyloxy)-5-hydroxy-4-(6-((tetrahydrofuran-3-yl)amino)indoline-1-carbonyl)benzonitrile], the IC50 is 1 to 10 µM.
On to `N#Cc1cc(O)c(C(=O)N2CCc3cc(NC4CCOC4)ccc32)c(OCc2ccccc2)c1` (centres unmarked) [Example 27.4, 3-(Benzyloxy)-5-hydroxy-4-(5-((tetrahydrofuran-3-yl)amino)indoline-1-carbonyl)benzonitrile], for which the 50% inhibitory concentration (IC50) was 1 to 10 µM.
For the molecule `O=C(c1c(O)cc(C(F)F)cc1OCc1ccccc1)N1CCc2cc(NC3CCOC3)ccc21` (centres unmarked) [Example 27.5, (2-(Benzyloxy)-4-(difluoromethyl)-6-hydroxyphenyl)(5-((tetrahydrofuran-3-yl)amino)indolin-1-yl)methanone], the IC50 lay in the range of 1 to 10 µM.
Regarding `CN1CCC(Oc2ccc3c(c2)CCN(C(=O)c2c(O)cc(C#N)cc2OCc2ccccc2)CC3)CC1` [Example 27.6, 3-(Benzyloxy)-5-hydroxy-4-(7-((1-methylpiperidin-4-yl)oxy)-2,3,4,5-tetrahydro-1H-benzo[d]azepine-3-carbonyl)benzonitrile hydroformate], the IC50 fell in the range of 1 to 10 µM.
As to `CN1CCC(Oc2ccc3c(c2)CCN(C(=O)c2c(O)cc(C(F)F)cc2OCc2ccccc2)CC3)CC1` [Example 27.7, (2-(Benzyloxy)-4-(difluoromethyl)-6-hydroxyphenyl)(7-((1-methylpiperidin-4-yl)oxy)-1,2,4,5-tetrahydro-3H-benzo[d]azepin-3-yl)methanone], the IC50 was 0.1 to 1 µM.
For `N#Cc1cc(O)c(C(=O)N2Cc3cnc(N4CCOCC4)cc3C2)c(OCc2ccccc2)c1` [Example 27.8, 3-(Benzyloxy)-5-hydroxy-4-(6-morpholino-2,3-dihydro-1H-pyrrolo[3,4-c]pyridine-2-carbonyl)benzonitrile], the IC50 lay in the range of 1 to 10 µM.
As for `O=C(c1c(O)cc(C(F)F)cc1OCc1ccccc1)N1Cc2cnc(N3CCOCC3)cc2C1` [Example 27.9, (2-(Benzyloxy)-4-(difluoromethyl)-6-hydroxyphenyl)(6-morpholino-1,3-dihydro-2H-pyrrolo[3,4-c]pyridin-2-yl)methanone], the IC50 lay in the range of 0.1 to 1 µM.
As for `N#Cc1cc(O)c(C(=O)N2Cc3cnc(N)cc3C2)c(OCc2ccccc2)c1` [Example 27.10, 4-(6-Amino-2,3-dihydro-1H-pyrrolo[3,4-c]pyridine-2-carbonyl)-3-(benzyloxy)-5-hydroxybenzonitrile hydroformate], the IC50 was in the range of 1 to 10 µM.
The figure for `Nc1cc2c(cn1)CN(C(=O)c1c(O)cc(C(F)F)cc1OCc1ccccc1)C2` [Example 27.11, (6-Amino-1,3-dihydro-2H-pyrrolo[3,4-c]pyridin-2-yl)(2-(benzyloxy)-4-(difluoromethyl)-6-hydroxyphenyl)methanone hydroformate] is 0.1 to 1 µM; for `CN(C)CCOc1cccc2c1CCN2C(=O)c1c(O)cc(C#N)cc1OCc1ccccc1` [Example 27.12, 3-(Benzyloxy)-4-(4-(2-(dimethylamino)ethoxy)indoline-1-carbonyl)-5-hydroxybenzonitrile] it is 1 to 10 µM; for `CN(C)CCOc1cccc2c1CCN2C(=O)c1c(O)cc(C(F)F)cc1OCc1ccccc1` [Example 27.13, (2-(Benzyloxy)-4-(difluoromethyl)-6-hydroxyphenyl)(4-(2-(dimethylamino)ethoxy)indolin-1-yl)methanone] it is 0.1 to 1 µM.
Consider `N#Cc1cc(O)c(C(=O)N2CCc3cccnc32)c(OCc2ccccc2)c1` [Example 27.14, 3-(Benzyloxy)-4-(2,3-dihydro-1H-pyrrolo[2,3-b]pyridine-1-carbonyl)-5-hydroxybenzonitrile], for which the IC50 was 1 to 10 µM.
On to `O=C(c1c(O)cc(C(F)F)cc1OCc1ccccc1)N1CCc2cccnc21` [Example 27.15, (2-(Benzyloxy)-4-(difluoromethyl)-6-hydroxyphenyl)(2,3-dihydro-1H-pyrrolo[2,3-b]pyridin-1-yl)methanone], for which the IC50 lay within 1 to 10 µM.
The result for `CN(C)CCOc1nc2c(c(NC3CCOC3)n1)CN(C(=O)c1c(O)cc(C#N)cc1OCc1ccccc1)CC2` (centres unmarked) [Example 27.16, 3-(Benzyloxy)-4-(2-(2-(dimethylamino)ethoxy)-4-((tetrahydrofuran-3-yl)amino)-5,6,7,8-tetrahydropyrido[4,3-d]pyrimidine-6-carbonyl)-5-hydroxybenzonitrile] reads 0.1 to 1 µM; that for `CN(C)CCOc1nc2c(c(NC3CCOC3)n1)CN(C(=O)c1c(O)cc(C(F)F)cc1OCc1ccccc1)CC2` (centres unmarked) [Example 27.17, (2-(Benzyloxy)-4-(difluoromethyl)-6-hydroxyphenyl)(2-(2-(dimethylamino)ethoxy)-4-((tetrahydrofuran-3-yl)amino)-7,8-dihydropyrido[4,3-d]pyrimidin-6(5H)-yl)methanone], 0.1 to 1 µM.
With `N#Cc1cc(O)c(C(=O)N2CCCc3cc(NC4CCOC4)ccc32)c(OCc2ccccc2)c1` (centres unmarked) [Example 27.18, 3-(Benzyloxy)-5-hydroxy-4-(6-((tetrahydrofuran-3-yl)amino)-1,2,3,4-tetrahydroquinoline-1-carbonyl)benzonitrile], the IC50 is 1 to 10 µM.
